Results on 4 compounds are retold here after ChEMBL document CHEMBL4834476, “Potent antiviral activity of Agrimonia pilosa, Galla rhois, and their components against SARS-CoV-2” (2021).

As a reminder, the inhibition is the change of the read-out against control, counted positive when it falls.

Assay [1] deals with SARS-CoV-2. In words: Antiviral activity against SARS-CoV-2 NCCP43326 infected in African green monkey Vero cells assessed as inhibition of plaque formation at 1 to 25 ug/ml treated with compound for 1 hr post-infection followed by drug wash-out and measured at 72 hrs post-infection by crystal violet staining analysis. The class given is functional. The note with it: for Activity: Severe acute respiratory syndrome coronavirus 2, dose 1-25 µg/ml.

Assay [2] deals with SARS-CoV-2. In words: Antiviral activity against SARS-CoV-2 NCCP43326 infected in African green monkey Vero cells assessed as inhibition of plaque formation at 25 ug/ml treated with compound for 1 hr post-infection followed by drug wash-out and measured at 72 hrs post-infection by crystal violet staining analysis relative to control. Format: functional. Conditions: Severe acute respiratory syndrome coronavirus 2, NCCP43326, Vero.

For assay [3], the system named is SARS-CoV-2. In words: Antiviral activity against SARS-CoV-2 NCCP43326 infected in African green monkey Vero cells assessed as reduction in spike protein production at 1 to 25 ug/ml treated with compound for 1 hr post-infection followed by drug wash-out and measured at 72 hrs post-infection by ELISA. The class given is functional, organism-based. The note with it: Severe acute respiratory syndrome coronavirus 2, dose 1-25 µg/ml.

Assay [4] deals with SARS-CoV-2. Description: Antiviral activity against SARS-CoV-2 NCCP43326 infected in African green monkey Vero cells assessed as reduction in spike protein production at 1 to 25 ug/ml cells were infected with virus for 1 hr followed by wash-out period and later treated with compound and measured after 72 hrs by ELISA. Format: functional, organism-based. The note with it: Severe acute respiratory syndrome coronavirus 2, dose 1-25 µg/ml.

Assay [5] concerns SARS-CoV-2. Description: Antiviral activity against SARS-CoV-2 NCCP43326 infected in African green monkey Vero cells assessed as inhibition of plaque formation at 0.125 to 0.5 ug/ml treated with compound for 1 hr post-infection followed by drug wash-out and measured at 72 hrs post-infection by staining analysis. The class given is functional, organism-based. Conditions: Severe acute respiratory syndrome coronavirus 2, dose 0.125-0.5 µg/ml.

SMILES strings stand for the structures. Calls of active or inactive are those of the source. The calls are words filed in the database; no cut-off is given here.

Regarding `C[C@H]1[C@H](C)CC[C@]2(C(=O)O)CC[C@]3(C)C(=CC[C@@H]4[C@@]5(C)CC[C@H](O)C(C)(C)[C@@H]5CC[C@]43C)[C@H]12` [URSOLIC ACID], the outcome with SARS-CoV-2 [1], with SARS-CoV-2 [3] and with SARS-CoV-2 [4] was Active. For the same compound, in the assay with SARS-CoV-2 [2], the inhibition at 25 µg/mL was determined as 78.3%.

On to `O=C(OC[C@H]1O[C@@H](OC(=O)c2cc(O)c(O)c(O)c2)[C@H](OC(=O)c2cc(O)c(O)c(O)c2)[C@@H](OC(=O)c2cc(O)c(O)c(O)c2)[C@@H]1OC(=O)c1cc(O)c(O)c(O)c1)c1cc(O)c(O)c(O)c1` [PENTAGALLOYL GLUCOSE], for which the result in the assay on SARS-CoV-2 [5], in the assay on SARS-CoV-2 [3] and with SARS-CoV-2 [4] was Active. Further, the “inhibition (INH)” value in the assay with SARS-CoV-2 [1] (dose 1-25 µg/ml, at 1 to 25 µg/mL) was 100%. The inhibition at 25 µg/mL in the assay with SARS-CoV-2 [2] was 100%.

With `CCOC(=O)c1cc(O)c(O)c(O)c1` [ETHYLGALLATE], the outcome in the assay with SARS-CoV-2 [1] was Active. In the assay on SARS-CoV-2 [2], the inhibition at 25 µg/mL was found to be 21.1%.

On to `O=c1c(O)c(-c2ccc(O)c(O)c2)oc2cc(O)cc(O)c12` [QUERCETIN], for which the result in the assay on SARS-CoV-2 [1], with SARS-CoV-2 [3] and with SARS-CoV-2 [4] was Active. For the same compound, the inhibition at 25 µg/mL in the assay with SARS-CoV-2 [2] was 67.2%.
